The values that follow come from patent US12252524B2, “GIP/GLP1 co-agonist compounds” (Eli Lilly and Company, priority 2018, dated 2025).

Test [1] has as its target T1, human GLP-1R (Homo sapiens, UniProt P43220). Briefly: GLP-1R HEK293 cell membrane [35S]GTPγS binding assay. The class given is biochemical. More on the design: expressed in transfected cells; host or cells: HEK293 cells expressing human GLP-1R; membranes. Particulars: for EC50: HEK293 cell membranes expressing human GLP-1R, [35S]GTPγS binding, read-out: hGLP1R GTPgS Rel EC50 nM (SEM, n). In outline:
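Membranes from HEK293 cells expressing the receptor incubated with peptide and […] [35S]GTPγS in HEPES pH 7.4 buffer with NaCl, MgCl2, saponin and BSA, 30 min at room temperature. Gαs-bound label captured by anti-Gαs antibody/SPA beads and counted; EC50 from four-parameter logistic fit.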
(In general: GTPγS is a poorly hydrolysed GTP analogue; its binding reports G protein activation.)

For test [2], the target named is T2, gastric inhibitory peptide receptor (GIPR) (Homo sapiens, UniProt P48546).
T2 sequence (P48546 22-466): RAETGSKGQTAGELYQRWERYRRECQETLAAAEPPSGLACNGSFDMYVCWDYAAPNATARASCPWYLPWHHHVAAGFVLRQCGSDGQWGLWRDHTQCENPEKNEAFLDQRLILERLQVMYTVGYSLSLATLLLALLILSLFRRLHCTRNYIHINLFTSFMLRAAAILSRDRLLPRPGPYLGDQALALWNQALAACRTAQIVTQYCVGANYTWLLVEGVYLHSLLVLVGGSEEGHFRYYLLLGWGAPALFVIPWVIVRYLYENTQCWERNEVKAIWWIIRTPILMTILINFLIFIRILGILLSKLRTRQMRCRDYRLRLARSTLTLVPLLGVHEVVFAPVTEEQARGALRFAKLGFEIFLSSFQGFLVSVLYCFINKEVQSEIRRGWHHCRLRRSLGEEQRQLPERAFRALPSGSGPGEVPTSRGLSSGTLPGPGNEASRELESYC
Description: cAMP pharmacological functional assay in presence of casein, hGIPR. It is filed as cell-based. Particulars: for EC50: HEK293 cells expressing hGIPR, 0.1% Casein, geometric mean, read-out: hGIPR cAMP Rel EC50 nM (SEM, n).

Test [3] deals with T1, human GLP-1R. Description: GLP-1R CHO cell β-arrestin recruitment assay. It is filed as cell-based. Further details: host or cells: CHO-K1 PathHunter cells, assay-ready frozen. The settings on record: for EC50: CHO-K1 cells, PathHunter β-arrestin-2 recruitment, 0.1% casein, read-out: hGLP1R B-Arrestin2 Rel EC50 uM (SEM, n); for hGLP1R B-Arrestin2 % Top: normalized to GLP-1 maximum control. A digest of the protocol: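 PathHunter CHO-K1 cells with ProLink-tagged human GLP-1R and enzyme-acceptor-tagged β-arrestin-2 treated with serially diluted peptides in assay buffer containing 0.1% hydrolyzed casein, 90 min at 37 °C.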
In general terms: Activated receptors often draw arrestin, which recruitment assays turn into a signal.

Test [4] has as its target human GLP-1 receptor (GLP-1R) (Homo sapiens, UniProt P43220). Briefly: cAMP pharmacological functional assay in presence of casein, hGLP-1R. It is filed as cell-based. Particulars: for EC50: HEK293 cells expressing hGLP-1R, 0.1% Casein, geometric mean, read-out: hGLP1R cAMP Rel EC50 nM (SEM, n).

pEC50: −log10 of the molar value. Where two headings read alike, the source gives them in different places. Numbered stars: 1 amine (or outer) side, 2 acyl side, 3 side chain; on linkers, the order of the positions; unused ones are H or OH. Square brackets hold non-standard residues; d marks the D form. Side chains are listed from the residue outwards. Peptide text beside a SMILES is read from it. * marks the point of attachment. C20 diacid = O=C(O)CCCCCCCCCCCCCCCCCCC(=O)*; C18 diacid = O=C(O)CCCCCCCCCCCCCCCCC(=O)*; γGlu = O=C(O)[C@H](CCC(=O)[*:2])N[*:1]; αMeY = C[C@](N)(Cc1ccc(O)cc1)C(=O)O; αMeF = C[C@](N)(Cc1ccccc1)C(=O)O; αMeL = CC(C)C[C@](C)(N)C(=O)O; Orn = NCCC[C@H](N)C(=O)O; Dap = NC[C@H](N)C(=O)O; AEEA = NCCOCCOCC(=O)O; Aib = CC(C)(N)C(=O)O

Sequence of human GLP-1 receptor (GLP-1R) (P43220 24-463): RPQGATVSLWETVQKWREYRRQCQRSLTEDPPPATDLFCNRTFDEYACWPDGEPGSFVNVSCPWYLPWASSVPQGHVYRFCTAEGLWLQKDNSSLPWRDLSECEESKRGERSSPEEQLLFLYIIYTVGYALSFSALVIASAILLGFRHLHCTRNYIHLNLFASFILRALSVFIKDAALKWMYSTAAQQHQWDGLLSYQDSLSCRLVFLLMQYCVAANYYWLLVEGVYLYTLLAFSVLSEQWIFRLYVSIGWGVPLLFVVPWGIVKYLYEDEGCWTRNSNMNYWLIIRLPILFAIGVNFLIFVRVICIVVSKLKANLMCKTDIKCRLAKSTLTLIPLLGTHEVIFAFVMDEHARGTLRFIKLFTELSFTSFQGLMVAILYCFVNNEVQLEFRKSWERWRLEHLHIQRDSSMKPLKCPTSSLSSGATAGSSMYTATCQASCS
T1 sequence (P43220 24-463): as above

As for `CC[C@H](C)[C@H](NC(=O)[C@H](CC(C)C)NC(=O)[C@H](Cc1ccc(O)cc1)NC(=O)[C@H](CCC(=O)O)NC(=O)[C@@H](NC(=O)[C@H](Cc1ccccc1)NC(=O)[C@H](CCC(=O)O)NC(=O)C(C)(C)NC(=O)[C@H](CCC(N)=O)NC(=O)[C@H](C)NC(=O)[C@H](CCCCNC(=O)COCCOCCNC(=O)COCCOCCNC(=O)CC[C@H](NC(=O)CCCCCCCCCCCCCCCCCCC(=O)O)C(=O)O)NC(=O)[C@H](CN)NC(=O)[C@H](CC(=O)O)NC(=O)[C@H](CC(C)C)NC(=O)[C@](C)(CC(C)C)NC(=O)[C@@H](NC(=O)[C@H](CO)NC(=O)[C@H](Cc1ccc(O)cc1)NC(=O)[C@H](CC(=O)O)NC(=O)[C@H](CO)NC(=O)[C@@H](NC(=O)[C@H](Cc1ccccc1)NC(=O)[C@@H](NC(=O)CNC(=O)[C@H](CCC(=O)O)NC(=O)C(C)(C)NC(=O)[C@H](N)Cc1ccc(O)cc1)[C@@H](C)O)[C@@H](C)O)[C@@H](C)CC)[C@@H](C)CC)C(=O)N[C@@H](C)C(=O)NCC(=O)NCC(=O)N1CCC[C@H]1C(=O)N[C@@H](CO)C(=O)N[C@@H](CO)C(=O)NCC(=O)N[C@@H](C)C(=O)N1CCC[C@H]1C(=O)N1CCC[C@H]1C(=O)N1CCC[C@H]1C(=O)N[C@@H](CO)C(N)=O` [Example 351] (H-[dY][Aib]EGTFTSDYSI[αMeL]LD[Dap]K([AEEA-AEEA-γGlu-C20 diacid])AQ[Aib]EFIEYLIAGGPSSGAPPPS-NH2), the EC50 on human GLP-1R [1] is 0.563 nM; in test [2], 0.298 nM; on human GLP-1R [3], 0.0196 µM; in test [4], 0.149 nM. Further, the “hGLP1R B-Arrestin2 % Top” value at human GLP-1R [3] is recorded as 23.5%.

Turning to `CC[C@H](C)[C@H](NC(=O)[C@H](CC(C)C)NC(=O)[C@H](Cc1ccc(O)cc1)NC(=O)[C@H](CCC(=O)O)NC(=O)[C@@H](NC(=O)[C@H](Cc1ccccc1)NC(=O)[C@H](CCC(=O)O)NC(=O)C(C)(C)NC(=O)[C@H](CCC(N)=O)NC(=O)[C@H](C)NC(=O)[C@H](CCCCNC(=O)COCCOCCNC(=O)COCCOCCNC(=O)CC[C@H](NC(=O)CCCCCCCCCCCCCCCCCCC(=O)O)C(=O)O)NC(=O)[C@H](CCCCN)NC(=O)[C@H](CC(=O)O)NC(=O)[C@H](CC(C)C)NC(=O)[C@](C)(CC(C)C)NC(=O)[C@@H](NC(=O)[C@H](CO)NC(=O)[C@H](Cc1ccc(O)cc1)NC(=O)[C@H](CC(=O)O)NC(=O)[C@H](CO)NC(=O)[C@@H](NC(=O)[C@](C)(Cc1ccccc1)NC(=O)[C@@H](NC(=O)CNC(=O)[C@H](CCC(=O)O)NC(=O)C(C)(C)NC(=O)[C@H](N)Cc1ccc(O)cc1)[C@@H](C)O)[C@@H](C)O)[C@@H](C)CC)[C@@H](C)CC)C(=O)N[C@@H](C)C(=O)NCC(=O)NCC(=O)N1CCC[C@H]1C(=O)N[C@@H](CO)C(=O)N[C@@H](CO)C(=O)NCC(=O)N[C@@H](C)C(=O)N1CCC[C@H]1C(=O)N1CCC[C@H]1C(=O)N1CCC[C@H]1C(=O)N[C@@H](CO)C(N)=O` [Example 345] (H-[dY][Aib]EGT[αMeF]TSDYSI[αMeL]LDKK([AEEA-AEEA-γGlu-C20 diacid])AQ[Aib]EFIEYLIAGGPSSGAPPPS-NH2), the negative logarithm of the EC50 (pEC50) at human GLP-1R [1] was 9.16; in test [2] it was 10.19; at human GLP-1R [3], 8.51; in test [4], 10.46. In addition, at human GLP-1R [3], the “hGLP1R B-Arrestin2 % Top” value was found to be 74.7%.

Turning to `CC[C@H](C)[C@H](NC(=O)[C@H](CC(C)C)NC(=O)[C@](C)(Cc1ccc(O)cc1)NC(=O)[C@H](CCC(=O)O)NC(=O)[C@@H](NC(=O)[C@H](Cc1ccccc1)NC(=O)[C@H](CCC(=O)O)NC(=O)C(C)(C)NC(=O)[C@H](CCC(N)=O)NC(=O)[C@H](C)NC(=O)[C@H](CCCCNC(=O)COCCOCCNC(=O)COCCOCCNC(=O)CC[C@H](NC(=O)CCCCCCCCCCCCCCCCC(=O)O)C(=O)O)NC(=O)[C@H](CCCCN)NC(=O)[C@H](CC(=O)O)NC(=O)[C@H](CC(C)C)NC(=O)[C@](C)(CC(C)C)NC(=O)[C@@H](NC(=O)[C@H](CO)NC(=O)[C@H](Cc1ccc(O)cc1)NC(=O)[C@H](CC(=O)O)NC(=O)[C@H](CO)NC(=O)[C@@H](NC(=O)[C@H](Cc1ccccc1)NC(=O)[C@@H](NC(=O)CNC(=O)[C@H](CCC(=O)O)NC(=O)C(C)(C)NC(=O)[C@H](N)Cc1ccc(O)cc1)[C@@H](C)O)[C@@H](C)O)[C@@H](C)CC)[C@@H](C)CC)C(=O)N[C@@H](C)C(=O)NCC(=O)NCC(=O)N1CCC[C@H]1C(=O)N[C@@H](CO)C(=O)N[C@@H](CO)C(=O)NCC(=O)N[C@@H](C)C(=O)N1CCC[C@H]1C(=O)N1CCC[C@H]1C(=O)N1CCC[C@H]1C(=O)N[C@@H](CO)C(N)=O` [Example 374] (H-[dY][Aib]EGTFTSDYSI[αMeL]LDKK([AEEA-AEEA-γGlu-C18 diacid])AQ[Aib]EFIE[αMeY]LIAGGPSSGAPPPS-NH2), the 50% effective concentration (EC50) is 0.345 nM on human GLP-1R [1], 0.0468 nM in test [2], 0.0218 µM on human GLP-1R [3] and 0.19 nM in test [4]. Also, the “hGLP1R B-Arrestin2 % Top” value at human GLP-1R [3] is reported as 34.7%.

For the compound `CC[C@H](C)[C@H](NC(=O)[C@H](CC(C)C)NC(=O)[C@H](Cc1ccc(O)cc1)NC(=O)[C@H](CCC(=O)O)NC(=O)[C@@H](NC(=O)[C@H](Cc1ccccc1)NC(=O)[C@H](CCC(=O)O)NC(=O)C(C)(C)NC(=O)[C@H](CCC(N)=O)NC(=O)[C@H](C)NC(=O)[C@H](CCCCNC(=O)COCCOCCNC(=O)COCCOCCNC(=O)CC[C@H](NC(=O)CCCCCCCCCCCCCCCCCCC(=O)O)C(=O)O)NC(=O)[C@H](CCCN)NC(=O)[C@H](CC(=O)O)NC(=O)[C@H](CC(C)C)NC(=O)[C@](C)(CC(C)C)NC(=O)[C@@H](NC(=O)[C@H](CO)NC(=O)[C@H](Cc1ccc(O)cc1)NC(=O)[C@H](CC(=O)O)NC(=O)[C@H](CO)NC(=O)[C@@H](NC(=O)[C@H](Cc1ccccc1)NC(=O)[C@@H](NC(=O)CNC(=O)[C@H](CCC(=O)O)NC(=O)C(C)(C)NC(=O)[C@H](N)Cc1ccc(O)cc1)[C@@H](C)O)[C@@H](C)O)[C@@H](C)CC)[C@@H](C)CC)C(=O)N[C@@H](C)C(=O)NCC(=O)NCC(=O)N1CCC[C@H]1C(=O)N[C@@H](CO)C(=O)N[C@@H](CO)C(=O)NCC(N)=O` [Example 370] (H-[dY][Aib]EGTFTSDYSI[αMeL]LD[Orn]K([AEEA-AEEA-γGlu-C20 diacid])AQ[Aib]EFIEYLIAGGPSSG-NH2), the 50% effective concentration (EC50) on human GLP-1R [1] came out at 0.428 nM; in test [2], 0.117 nM; at human GLP-1R [3], 0.0099 µM; in test [4] it was 0.186 nM. The “hGLP1R B-Arrestin2 % Top” value at human GLP-1R [3] stood at 23.0%.

In the case of `CC[C@H](C)[C@H](NC(=O)[C@H](CC(C)C)NC(=O)[C@H](Cc1ccc(O)cc1)NC(=O)[C@H](CCC(=O)O)NC(=O)[C@@H](NC(=O)[C@H](Cc1ccccc1)NC(=O)[C@H](C)NC(=O)C(C)(C)NC(=O)[C@H](CCC(N)=O)NC(=O)[C@H](C)NC(=O)[C@H](CCCCNC(=O)COCCOCCNC(=O)COCCOCCNC(=O)CC[C@H](NC(=O)CCCCCCCCCCCCCCCCCCC(=O)O)C(=O)O)NC(=O)[C@H](CN)NC(=O)[C@H](CC(=O)O)NC(=O)[C@H](CC(C)C)NC(=O)[C@](C)(CC(C)C)NC(=O)[C@@H](NC(=O)[C@H](CO)NC(=O)[C@H](Cc1ccc(O)cc1)NC(=O)[C@H](CC(=O)O)NC(=O)[C@H](CO)NC(=O)[C@@H](NC(=O)[C@H](Cc1ccccc1)NC(=O)[C@@H](NC(=O)CNC(=O)[C@H](CCC(=O)O)NC(=O)C(C)(C)NC(=O)[C@H](N)Cc1ccc(O)cc1)[C@@H](C)O)[C@@H](C)O)[C@@H](C)CC)[C@@H](C)CC)C(=O)N[C@@H](C)C(=O)NCC(=O)NCC(=O)N1CCC[C@H]1C(=O)N[C@@H](CO)C(=O)N[C@@H](CO)C(=O)NCC(=O)N[C@@H](C)C(=O)N1CCC[C@H]1C(=O)N1CCC[C@H]1C(=O)N1CCC[C@H]1C(=O)N[C@@H](CO)C(N)=O` [Example 348] (H-[dY][Aib]EGTFTSDYSI[αMeL]LD[Dap]K([AEEA-AEEA-γGlu-C20 diacid])AQ[Aib]AFIEYLIAGGPSSGAPPPS-NH2), the EC50 on human GLP-1R [1] amounted to 0.66 nM; in test [2], 0.193 nM; at human GLP-1R [3] it was 0.00346 µM; in test [4] it was 0.113 nM. For the same compound, on human GLP-1R [3], the “hGLP1R B-Arrestin2 % Top” value is recorded as 19.8%.

What is called EC50 is the midpoint of the concentration-response curve. The term pEC50 denotes the EC50 on a negative log10 scale, so that one unit is a factor of ten.
